Results reported in patent US20130137856A1, “PROTEIN BINDING DOMAINS STABILIZING FUNCTIONAL CONFORMATIONAL STATES OF GPCRS AND USES THEREOF” (priority 2010, published 2013).
Structures can show the parent of a compound that is named as a salt. Where two headings read alike, the source gives them in different places.

What was measured:
β2AR-T4L = target: T1, β2AR-T4L (Homo sapiens, UniProt P07550, DEL231-262, form not given); test: [3H]-DHA saturation binding on β2AR-T4L reconstituted in HDL particles; conditions: read-out: [3H]-DHA saturation binding Kd ± S.E.
T1 construct: The β2AR and β2AR-T4L (both truncated at position 365) purified as previously described (Rosenbaum et al. 2007); fused on or other part: T4 lysozyme (in the cited construct residues 2-161, C54T/C97A) inserted in place of the third intracellular loop as a crystallisation aid
Method: (§1) The effect of Nb80 and Gs on the receptors affinity for agonists was compared in competition binding experiments. The β2AR and β2AR-[…] (both […]) purified as previously described (Rosenbaum et al. 2007; […] GTPγS was used at 10 μM. […] Bound ^3H-DHA was separated from unbound on a Brandel harvester by passing over a Whatman GF/B filter (presoaked in TBS with 0.3% polyethylenimine) and washed in cold TBS. Radioligand binding was measured in a Beckman LS6000 scintillation counter. Ligand binding affinity (Kd) of DHA was determined from saturation binding curves using GraphPad Prism software.

β2AR [1] = target: T2, β2AR (Homo sapiens, UniProt P07550); test: [3H]-DHA saturation binding on β2AR reconstituted in HDL particles; set-up: recombinant β2AR truncated at Gly365 (β2AR-365); made in house; host or cells: Sf9 insect cells (membranes); conditions: read-out: [3H]-DHA saturation binding Kd ± S.E.
Method: as §1

β2AR [2] = target: T2, β2AR; test: Competition radioligand binding on commercial insect cell membranes with full-length human β2AR, Nb80 versus irrelevant Nb
[3] = 500 nM Nb80 or irrelevant Nb, 2 nM 3H-DHA radioligand

Molecule | Potency shift (ratio of IC50 with irrelevant Nb to IC50 with Nb80) (β2AR [2]; [3]) | other results
CCCc1ccccc1OCC(O)CNC(C)C (stereo not shown) [[^3H]-DNA, [^3H]-dihydroalprenolol] | – | Kd (β2AR-T4L): 420 ± 10 pM; Kd (β2AR [1]): 550 ± 90 pM
CC(CCc1ccc(O)cc1)NCCc1ccc(O)c(O)c1 (stereo not shown) [dobutamine, dobutamine hydrochloride] | 2.3 | –
CC(Cc1ccc(O)cc1)NCC(O)c1cc(O)cc(O)c1 (stereo not shown) [fenoterol, fenoterol hydrobromide] | 3.7 | –
CCC(NC(C)C)C(O)c1ccc(O)c2[nH]c(=O)ccc12 (stereo not shown) [procaterol, procaterol hydrochloride] | 2.3 | –
CC(NCCc1ccc(O)cc1)C(O)c1ccc(O)cc1 (stereo not shown) [ritodrine, ritodrine hydrochloride] | 2.7 | –
metaproterenol hemisulfate salt | – | Potency shift (ratio of IC50 with irrelevant Nb to IC50 with Nb80) (β2AR [2]): 2.9
